Type in all cases: functional
Common to all, as to details: read-out: MIC100

Assay [1] has as its system Klebsiella pneumoniae. As to the kind of experiment: Antibacterial activity against Klebsiella pneumoniae assessed as inhibition of bacterial growth incubated for 24 hrs by broth microdilution method.
The subject of assay [2] is Acinetobacter baumannii. As to the kind of experiment: Antibacterial activity against Acinetobacter baumannii assessed as inhibition of bacterial growth incubated for 24 hrs by broth microdilution method. In general terms: In broth dilution the organism is exposed to a series of concentrations in liquid medium.
Assay [3] deals with Escherichia coli. As to the kind of experiment: Antibacterial activity against Escherichia coli assessed as inhibition of bacterial growth incubated for 24 hrs by broth microdilution method.
Assay [4] concerns Moraxella catarrhalis. As to the kind of experiment: Antibacterial activity against Moraxella catarrhalis assessed as inhibition of bacterial growth incubated for 24 hrs by broth microdilution method.
Assay [5] relates to Pseudomonas aeruginosa. As to the kind of experiment: Antibacterial activity against Pseudomonas aeruginosa assessed as inhibition of bacterial growth incubated for 24 hrs by broth microdilution method.
For assay [6], the system named is Pseudomonas aeruginosa. As to the kind of experiment: Antibacterial activity against Pseudomonas aeruginosa PAO1 assessed as inhibition of bacterial growth incubated for 24 hrs by broth microdilution method.

The structures appear in SMILES notation. ≈ marks a conversion by molar mass, not a printed value.

Consider `CSCC[C@H](N)C(=O)O[C@H](C)[C@H](NC(=O)[C@H](CCN)NC(=O)CCCCC(C)C)C(=O)N[C@@H](CCN)C(=O)N[C@H]1CCNC(=O)[C@H]([C@@H](C)O)NC(=O)[C@H](CCN)NC(=O)[C@H](CCN)NC(=O)[C@H](CC(C)C)NC(=O)[C@@H](Cc2ccccc2)NC(=O)[C@H](CCN)NC1=O`, for which the MIC in assay [1] is 2 µg/mL (≈ 1.51 µM); in assay [2] it was 0.125 µg/mL (≈ 0.0946 µM); in assay [3], 0.25 µg/mL (≈ 0.189 µM); in assay [4], over 16 µg/mL; in assay [5] it was 0.125 µg/mL (≈ 0.0946 µM); in assay [6], 2 µg/mL (≈ 1.51 µM).

`CC(C)CCCCC(=O)N[C@@H](CCN)C(=O)N[C@H](C(=O)N[C@@H](CCN)C(=O)N[C@H]1CCNC(=O)[C@H]([C@@H](C)O)NC(=O)[C@H](CCN)NC(=O)[C@H](CCN)NC(=O)[C@H](CC(C)C)NC(=O)[C@@H](Cc2ccccc2)NC(=O)[C@H](CCN)NC1=O)[C@@H](C)OC(=O)[C@@H](N)Cc1c[nH]c2ccccc12`: the MIC in assay [1] was 2 µg/mL (≈ 1.45 µM); in assay [2], 0.06 µg/mL (≈ 0.0436 µM); in assay [3], 0.25 µg/mL (≈ 0.182 µM); in assay [4], over 32 µg/mL; in assay [5] it was 0.125 µg/mL (≈ 0.0909 µM); in assay [6], 2 µg/mL (≈ 1.45 µM).

With `CCCCCCCC(=O)N[C@@H](CCN)C(=O)N[C@H](C(=O)N[C@@H](CCN)C(=O)N[C@H]1CCNC(=O)[C@H](CS)NC(=O)[C@H](CCN)NC(=O)[C@H](CCN)NC(=O)[C@H](CC(C)C)NC(=O)[C@@H](Cc2ccccc2)NC(=O)[C@H](CCN)NC1=O)[C@@H](C)O`, the MIC in assay [1] came out at 2 µg/mL (≈ 1.68 µM); in assay [2] it was 0.25 µg/mL (≈ 0.21 µM); in assay [3], 2 µg/mL (≈ 1.68 µM); in assay [4] it was 4 µg/mL (≈ 3.36 µM); in assay [5], 0.06 µg/mL (≈ 0.0504 µM); in assay [6], 2 µg/mL (≈ 1.68 µM).

As to `CC(C)CCCCC(=O)N[C@@H](CCN)C(=O)N[C@H](C(=O)N[C@@H](CCN)C(=O)N[C@H]1CCNC(=O)[C@H]([C@@H](C)O)NC(=O)[C@H](CCN)NC(=O)[C@H](CCN)NC(=O)[C@H](CC(C)C)NC(=O)[C@@H](Cc2ccccc2)NC(=O)[C@H](CCN)NC1=O)[C@@H](C)OC(=O)[C@@H](N)CCCNC(=N)N`, the MIC in assay [1] is 1 µg/mL (≈ 0.743 µM); in assay [2], 0.25 µg/mL (≈ 0.186 µM); in assay [3], 0.5 µg/mL (≈ 0.372 µM); in assay [4] it was over 16 µg/mL; in assay [5], 0.5 µg/mL (≈ 0.372 µM); in assay [6], 2 µg/mL (≈ 1.49 µM).

As for `CC(C)C[C@@H]1NC(=O)[C@@H](Cc2ccccc2)NC(=O)[C@H](CCN)NC(=O)[C@@H](NC(=O)[C@H](CCN)NC(=O)[C@@H](NC(=O)[C@H](CCN)NC(=O)CCCCCCCN)[C@@H](C)O)CCNC(=O)[C@H]([C@@H](C)O)NC(=O)[C@H](CCN)NC(=O)[C@H](CCN)NC1=O`, the MIC in assay [1] was over 32 µg/mL; in assay [2], 2 µg/mL (≈ 1.66 µM); in assay [3], 8 µg/mL (≈ 6.64 µM); in assay [4], over 32 µg/mL; in assay [5] it was 0.125 µg/mL (≈ 0.104 µM); in assay [6] it was 1 µg/mL (≈ 0.83 µM).

For the compound `CCCCCCCC(=O)N[C@@H](CCN)C(=O)NC(Cc1ccc(O)cc1)C(=O)N[C@@H](CCN)C(=O)N[C@H]1CCNC(=O)[C@H]([C@@H](C)O)NC(=O)[C@H](CCN)NC(=O)[C@H](CCN)NC(=O)[C@H](CC(C)C)NC(=O)[C@@H](Cc2ccccc2)NC(=O)[C@H](CCN)NC1=O` (single isomer, unassigned), the MIC in assay [1] was over 64 µg/mL; in assay [2], over 64 µg/mL; in assay [3] it was 16 µg/mL (≈ 12.8 µM); in assay [4], 8 µg/mL (≈ 6.39 µM); in assay [5], 2 µg/mL (≈ 1.6 µM); in assay [6], 32 µg/mL (≈ 25.6 µM).

For `CC(C)CCCCC(=O)N[C@@H](CCN)C(=O)N[C@H](C(=O)N[C@@H](CCN)C(=O)N[C@H]1CCNC(=O)[C@H]([C@@H](C)O)NC(=O)[C@H](CCN)NC(=O)[C@H](CCN)NC(=O)[C@H](CC(C)C)NC(=O)[C@@H](Cc2ccccc2)NC(=O)[C@H](CCN)NC1=O)[C@@H](C)OC(=O)[C@H](C)N`, the MIC was 2 µg/mL (≈ 1.59 µM) in assay [1]; 0.125 µg/mL (≈ 0.0992 µM) in assay [2]; 0.25 µg/mL (≈ 0.198 µM) in assay [3]; over 32 µg/mL in assay [4]; 0.25 µg/mL (≈ 0.198 µM) in assay [5]; 1 µg/mL (≈ 0.793 µM) in assay [6].

These data come from ChEMBL document CHEMBL4825673, “Total and Semisyntheses of Polymyxin Analogues with 2-Thr or 10-Thr Modifications to Decipher the Structure-Activity Relationship and Improve the Antibacterial Activity” (J Med Chem, 2021).
